# Assays:
# Format in all cases: functional
# [1] = test system: COLO 205; test: Cytotoxicity against human COLO205 cells assessed as cellular growth at 10 uM by SRB assay
# [2] = test system: A498; test: Cytotoxicity against human A498 cells assessed as cellular growth at 10 uM by SRB assay
# [3] = test system: SW-620; test: Cytotoxicity against human SW620 cells assessed as cellular growth at 10 uM by SRB assay
# [4] = test system: SNB-19; test: Cytotoxicity against human SNB19 cells assessed as cellular growth at 10 uM by SRB assay
# [5] = test system: NCI-H226; test: Cytotoxicity against human NCI-H226 cells assessed as cellular growth at 10 uM by SRB assay
# [6] = test system: NCI-H460; test: Cytotoxicity against human NCI-H460 cells assessed as cellular growth at 10 uM by SRB assay
# [7] = test system: ACHN; test: Cytotoxicity against human ACHN cells assessed as cellular growth at 10 uM by SRB assay
# [8] = test system: A549; test: Cytotoxicity against human A549 cells assessed as cellular growth at 10 uM by SRB assay
# [9] = test system: IGROV-1; test: Cytotoxicity against human IGROV1 cells assessed as cellular growth at 10 uM by SRB assay
# [10] = test system: UO-31; test: Cytotoxicity against human UO31 cells assessed as cellular growth at 10 uM by SRB assay
# [11] = test system: K562; test: Cytotoxicity against human K562 cells assessed as cellular growth at 10 uM by SRB assay
# [12] = test system: Malme-3M; test: Cytotoxicity against human MALME-3M cells assessed as cellular growth at 10 uM by SRB assay
# [13] = test system: U-251; test: Cytotoxicity against human U251 cells assessed as cellular growth at 10 uM by SRB assay
# [14] = test system: OVCAR-8; test: Cytotoxicity against human OVCAR8 cells assessed as cellular growth at 10 uM by SRB assay
# [15] = test system: SK-MEL-2; test: Cytotoxicity against human SK-MEL-2 cells assessed as cellular growth at 10 uM by SRB assay
# [16] = test system: OVCAR-3; test: Cytotoxicity against human OVCAR3 cells assessed as cellular growth at 10 uM by SRB assay
# [17] = test system: BT-549; test: Cytotoxicity against human BT549 cells assessed as cellular growth at 10 uM by SRB assay
# [18] = test system: SN12C; test: Cytotoxicity against human SN12C cells assessed as cellular growth at 10 uM by SRB assay
# [19] = test system: TK-10; test: Cytotoxicity against human TK10 cells assessed as cellular growth at 10 uM by SRB assay
# [20] = test system: HL-60(TB); test: Cytotoxicity against human HL-60(TB) cells assessed as cellular growth at 10 uM by SRB assay
Structure (SMILES),Activity [1],Activity [2],Activity [3],Activity [4],Activity [5],Activity [6],Activity [7],Activity [8],Activity [9],Activity [10],Activity [11],Activity [12],Activity [13],Activity [14],Activity [15],Activity [16],Activity [17],Activity [18],Activity [19],Activity [20]
O=c1/c(=C/c2ccccc2)sc2nc(-c3ccc(Cl)cc3Cl)nn12,123.34%,108.54%,101.67%,110.52%,100.81%,106.69%,109.45%,103.15%,102.56%,88.97%,99.39%,121.75%,105.46%,102.91%,117.96%,105.06%,105.68%,106.99%,98.86%,–
Cc1ccc2c(c1)N/C(=C/C(=O)c1ccc(Cl)cc1)C(=O)O2,118.18%,–,114.93%,105.39%,105.28%,109.79%,103.68%,92.75%,136.06%,94.15%,99.7%,99.95%,100.94%,101.66%,108.87%,119.21%,109.64%,93.53%,131.96%,97.02%
N#Cc1ccc(-n2nnc3ccccc32)cc1C#N,104.26%,72.76%,94.36%,112.27%,96.73%,106.55%,102.68%,87.19%,103.62%,88.55%,92.97%,96.58%,91.31%,99.01%,–,101.15%,106.48%,101.03%,133.56%,107.7%
O=C(NCc1cccnc1)c1sc2cc([N+](=O)[O-])ccc2c1Cl,118.05%,66.73%,96.99%,96.96%,97.25%,106.27%,106.03%,91.87%,106.67%,76.73%,93.09%,105.28%,90.3%,96.34%,–,100.57%,97.89%,92.4%,122.07%,110.91%
CC1(C)CCc2cc(-c3ccn(S(=O)(=O)c4ccc(Cl)cc4)n3)ccc2O1,116.9%,70.82%,87.74%,100.09%,74.42%,73.79%,89.36%,67.37%,–,75.63%,52.43%,–,74.2%,86.61%,92.25%,84.01%,88.83%,72.79%,76.99%,71.91%
Clc1ccc(-c2nc(-c3cccs3)no2)c(Cl)c1,106.21%,110.86%,88.07%,104.48%,88.68%,92.07%,99.79%,91.44%,66.78%,70.88%,96.15%,102.62%,90.09%,97.12%,122.72%,99.18%,83.02%,100.86%,71.42%,–
Clc1ccc(-c2nc(-c3cccs3)no2)cc1,113.89%,93.08%,105.71%,103.81%,100.24%,110.35%,96.33%,94.07%,–,74.13%,101.77%,–,90.3%,106.56%,116.4%,103.69%,111.04%,97.08%,109.61%,98.45%
Oc1ccccc1-c1nc(-c2cccs2)no1,111.09%,105.68%,95.69%,102.55%,93.28%,95.65%,98.95%,99.05%,86.9%,71.94%,96.52%,105.64%,89.74%,102.43%,107.16%,108.33%,92.36%,90.61%,89.67%,–
COc1ccc(Cl)cc1C(=O)Nc1nc2ccc(Cl)cc2s1,82.83%,–,100.98%,102.79%,89.17%,93.65%,85.89%,76.66%,65.9%,58.24%,86.76%,83.31%,87.26%,88.9%,103.7%,102.8%,97.73%,91.7%,126.89%,103.5%
Cc1cc(C)c(NC(=O)c2sc3nc4c(cc3c2N)C(=O)CCC4)c(C)c1,-6.14%,-7.37%,15.59%,40.22%,77.05%,6.43%,55.26%,23.05%,35.36%,56.95%,19.79%,42.11%,21.13%,45.64%,36.14%,13.17%,56.75%,–,44.75%,14.55%
CC1(C)CC(=O)c2cc3c(N)c(C(=O)Nc4ccccc4Cl)sc3nc2C1,125.06%,71.33%,108.49%,106.42%,111.12%,113.94%,114.15%,102.64%,126.77%,117.05%,96.43%,121.48%,102.37%,109.63%,111.24%,121.58%,128%,104.5%,106.14%,–
Nc1c(C(=O)Nc2ccc(Cl)c(Cl)c2)sc2nc(-c3cccs3)ccc12,115.1%,–,105.33%,95.32%,96.17%,103.53%,99.6%,54.62%,122.32%,83.99%,86.57%,90.04%,83.86%,98.27%,58.47%,100.29%,76.11%,89.08%,87.49%,99.11%
O=C(NCCc1ccccc1)c1cc2cccc([N+](=O)[O-])c2[nH]1,90.85%,117.41%,108.15%,97.53%,82.38%,101.23%,93.06%,94.33%,101.06%,62.13%,82.43%,–,97.58%,94.36%,101.4%,109%,99.6%,94.11%,102.94%,114.53%
Nc1c(C(=O)Nc2ccccc2F)sc2nc3c(cc12)C(=O)CCC3,5.76%,-1.01%,30%,41.11%,75.1%,11.41%,65.41%,22.02%,–,76%,26.33%,–,31.63%,58.62%,42.64%,16.76%,59.83%,49.76%,59.66%,3387%

# Source: ChEMBL document CHEMBL2202954, “The effect of PLC-γ2 inhibitors on the growth of human tumour cells” (2012)
